The test system of assay [1] is cells in void urine samples from prostate cancer patients. The assay is described as follows: Cytometry of urine samples from cancer patients. The assay is classed as cell-based, human. Particulars: for highest relative bound fraction from other samples: other subjects. On the procedure:
Cytometry of urine samples from cancer patients. 10-15 mL void urine sample was collected from each cancer patient. The cells in those samples were collected by centrifugation at […] for 10 minutes at 4° C., and were re-suspended in PBS. Then, the cells from each sample were divided into three aliquots: one was used in cytometry; another was used in RT-qPCR; and the rest was mixed with cryo-protectant (80% FBS and 20% DMSO) at 1:1 ratio, and stored in liquid nitrogen. The cells used for cytometry were incubated with 0, 0.5, 1, and 5 μM PDCy3, respectively, on ice for 20 minutes in the dark, and then were analyzed by flowcytometry.
The urine samples were labeled with 0.0, 0.5, 1.0, and 5.0 μM probe, respectively, at 4° C. for half an hour, and then were subjected to FACS analysis. Different cell populations could be distinguished by their side scattering and fluorescent intensity of bound probes (FIG. 6A). […] At 0.5 μM of the probe, the relative bound probe to this sample was 13.6 times higher than the average of others. In addition, the fractions of bound probe at […] relative to the one at 5.0 μM concentration were 0.28 and 0.30, respectively. In contrast, the highest relative bound fractions at 0.5 and 1.0 μM probe from other samples were 0.1 and 0.16, respectively.

Assay [2] concerns mock transfected / EGFR-negative HEK293T cells. The assay is described as follows: Flowcytometry of PDCy3 labelling of EGFR negative and mock transfected cells (specificity). Format: cell-based. On the procedure:
Cell sorting. Following starvation in EX-Cell 293 Serum-Free Medium for 44 hours, transfected cells were treated with gefitinib, PDCy3, or EGF for 4 hours at 37° C. Then, the cells were washed twice with 500 μl/well ice-cold PBS, and were re-suspended in 400 μl/well PBS. The final cell density was estimated to be 5×10^5˜1×10^6 cells/ml. To detect EGFR expression, 3 μd anti-EGFR 528 antibody (santa cruz biotechnology inc, USA) at 200 μg/ml concentration was added to each well of re-suspended cells. After 30-minute incubation on ice, cells were washed twice with 500 μl/well PBS, and were re-suspended in […]. Then, 0.3 μl FITC-labelled secondary antibody at a concentration of 2 mg/ml was added to each sample. After incubation on ice for 30 minutes, cells were washed three times with PBS, re-suspended in 400 μl/well PBS, and analyzed by flowcytometry using a BD FACS Calibur machine.
To extend the application of PDCy3 probe in a diagnosis-related setting, we optimized the labelling conditions so that the cells with over-expressed EGFR could be more specifically labelled with the probe. We compared the efficiencies in labelling EGFR over-expressed cells versus those non-over-expressed cells under different PDCy3 concentrations (FIG. 3A). […] Under this condition, over 84.9% EGFR positive cells could be labeled by this probe. In comparison, 6.7% EGFR negative cells and 1.4% mock transfected cells were labelled by PDCy3 probe at the same condition. However, when the concentration of PDCy3 was increased to […] or higher, mock transfected cells or transfected, EGFR-negative cells were getting to be labelled non-specifically.
Cell sorting. Following starvation in EX-Cell 293 Serum-Free Medium for 44 hours, transfected cells were treated with gefitinib, PDCy3, or EGF for 4 hours at 37° C. Then, the cells were washed twice with 500 μL/well ice-cold PBS, and were re-suspended in 400 μL/well PBS. The final cell density was estimated to be 5×10^5˜1×10^6 cells/mL. To detect EGFR expression, 3 μL anti-EGFR 528 antibody (Santa Cruz Biotechnology Inc, USA) at 200 μg/mL concentration was added to each well of re-suspended cells. After 30-minute incubation on ice, cells were washed twice with 500 μL/well PBS, and were re-suspended in 400 μL PBS. Then, 0.3 μL FITC-labelled secondary antibody at a concentration of 2 mg/mL was added to each sample. After incubation on ice for 30 minutes, cells were washed three times with PBS, re-suspended in 400 μL/well PBS, and analyzed by floweytometry using a BD FACS Calibur machine.
To characterize the specificity of PDCy3, we compared the efficiencies in labelling EGFR over-expressed cells versus those non-over-expressed cells under different PDCy3 concentrations (FIG. 3A). […]

SMILES strings stand for the structures.

Turning to `CN1/C(=C/C=C/C2=[N+](CCCCCC(=O)NCCC/C=C/C(=O)Nc3ccc4ncnc(Nc5cccc(Br)c5)c4c3)c3ccc(S(=O)(=O)O)cc3C2(C)C)C(C)(C)c2cc(S(=O)(=O)[O-])ccc21` [PDCy3, 1-(6-((E)-6-(4-(3-bromophenylamino)quinazolin-6-ylamino)-6-oxohex-4-enylamino)-6-oxohexyl)-3,3-dimethyl-2-((1E,3E)-3-(1,3,3-trimethyl-5-sulfonatoindolin-2-ylidene)prop-1-enyl)-3H-indolium-5-sulfonate], the “relative bound probe, sample of subject 4 versus the average of others” value in assay [1] (0.5 μM probe) was 13.6 times. Besides, the figures for the “highest relative bound fraction from other samples” value in assay [1] (0.5 μM probe) and in assay [1] (1.0 μM probe) were 0.1 and 0.16, respectively. Moreover, the “fraction of bound probe relative to the one at 5.0 μM concentration” value in assay [1] (subject 4, 0.5 μM probe) is reported as 0.28; in assay [1] (subject 4, 1.0 μM probe) it was 0.30. Moreover, the “mock transfected cells labelled by PDCy3” value in assay [2] (1 μM PDCy3) worked out at 1.4%. The “EGFR negative cells labelled by PDCy3” value in assay [2] (1 μM PDCy3, transfected, EGFR-negative cells) is on record as 6.7%. In addition, the PDCy3 concentration at which mock transfected or EGFR-negative cells are labelled non-specifically in assay [2] (as printed in Example 2) and in assay [2] (as printed in Example 3) was not below 5 µM each time.

(Values after US12678518B2, “Theranostic probe and its use for targeting and/or labeling the EGFR kinase and/or the cells expressing EGFR or its family members” (Tianjin University, priority 2019, dated 2026).)
